What was measured:
[1] = molecular target: T1, GABA-A receptor; alpha-5/beta-3/gamma-2 (Homo sapiens, UniProt P18507+P28472+P31644); assay: Displacement of [3H]Ro151788 from human recombinant alpha5beta3gamma2 GABAA receptor stably expressed in HEK293 cell membrane assessed as inhibition constant by radioligand binding assay; assay type: cell membranes
T1 sequence (P18507 whole entry): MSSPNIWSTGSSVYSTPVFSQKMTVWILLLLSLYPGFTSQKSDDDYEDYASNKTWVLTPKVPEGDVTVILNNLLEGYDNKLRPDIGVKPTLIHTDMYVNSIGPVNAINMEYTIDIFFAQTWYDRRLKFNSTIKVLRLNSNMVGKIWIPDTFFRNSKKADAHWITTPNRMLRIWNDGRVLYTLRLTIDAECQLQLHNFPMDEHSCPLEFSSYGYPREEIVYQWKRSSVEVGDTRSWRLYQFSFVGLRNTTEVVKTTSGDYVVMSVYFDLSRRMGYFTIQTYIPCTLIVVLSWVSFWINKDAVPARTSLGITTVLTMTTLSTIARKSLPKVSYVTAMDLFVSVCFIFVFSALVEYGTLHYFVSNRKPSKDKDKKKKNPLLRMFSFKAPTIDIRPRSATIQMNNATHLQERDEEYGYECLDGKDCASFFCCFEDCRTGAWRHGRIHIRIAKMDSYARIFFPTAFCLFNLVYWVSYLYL
T1 sequence (P28472 whole entry): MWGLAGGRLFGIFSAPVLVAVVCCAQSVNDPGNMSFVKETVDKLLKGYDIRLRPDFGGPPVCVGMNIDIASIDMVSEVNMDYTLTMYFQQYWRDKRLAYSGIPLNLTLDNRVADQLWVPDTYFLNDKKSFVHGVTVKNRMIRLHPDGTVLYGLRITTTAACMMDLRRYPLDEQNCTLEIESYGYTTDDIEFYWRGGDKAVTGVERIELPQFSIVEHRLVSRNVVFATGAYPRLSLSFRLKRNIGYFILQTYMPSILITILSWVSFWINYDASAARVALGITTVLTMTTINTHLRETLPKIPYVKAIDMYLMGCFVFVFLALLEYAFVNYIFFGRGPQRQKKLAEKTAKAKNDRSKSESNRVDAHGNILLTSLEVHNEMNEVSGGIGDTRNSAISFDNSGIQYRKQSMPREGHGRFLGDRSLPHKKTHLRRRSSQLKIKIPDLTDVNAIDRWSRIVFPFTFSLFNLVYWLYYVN
T1 sequence (P31644 whole entry): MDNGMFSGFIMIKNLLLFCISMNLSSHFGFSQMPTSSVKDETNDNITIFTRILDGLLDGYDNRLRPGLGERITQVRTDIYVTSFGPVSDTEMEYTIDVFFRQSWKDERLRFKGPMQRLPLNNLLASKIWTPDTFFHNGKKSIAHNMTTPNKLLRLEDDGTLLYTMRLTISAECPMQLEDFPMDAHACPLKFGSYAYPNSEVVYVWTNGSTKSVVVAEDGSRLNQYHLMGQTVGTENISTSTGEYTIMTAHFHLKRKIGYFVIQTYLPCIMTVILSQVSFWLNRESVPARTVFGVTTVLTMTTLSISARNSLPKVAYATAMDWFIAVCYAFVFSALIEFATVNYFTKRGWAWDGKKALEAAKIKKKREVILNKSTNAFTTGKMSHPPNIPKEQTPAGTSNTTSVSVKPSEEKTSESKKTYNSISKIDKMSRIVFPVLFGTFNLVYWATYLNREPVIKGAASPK

[2] = molecular target: T2, GABA-A receptor; alpha-5/beta-3/gamma-2 (Homo sapiens) (UniProt P18507+P28472+P31644); assay: Negative allosteric modulation activity at human recombinant alpha5beta3gamma2 GABAA receptor stably expressed in HEK293 cells assessed as modulation at alpha5 subunit at 1 uM by Patch clamp method; assay type: cell-based; details: filed as negative allosteric modulator
[3] = molecular target: T2, GABA-A receptor; alpha-5/beta-3/gamma-2 (Homo sapiens); assay: Negative allosteric modulation activity at human recombinant alpha5beta3gamma2 GABAA receptor stably expressed in HEK293 cells assessed as modulation at alpha5 subunit at 10 uM by Patch clamp method; assay type: cell-based
[4] = molecular target: GABA-A receptor; alpha-1/beta-3/gamma-2 (Homo sapiens) (UniProt P14867+P18507+P28472); assay: Negative allosteric modulation activity at human recombinant alpha1beta3gamma2 GABAA receptor stably expressed in HEK293 cells assessed as modulation at alpha1 subunit at 10 uM by Patch clamp method; assay type: cell-based; details: filed as negative allosteric modulator
[5] = molecular target: Voltage-gated inwardly rectifying potassium channel KCNH2 (Homo sapiens, UniProt Q12809); assay: Inhibition of hERG expressed in CHO cells stably at -80 mV holding potential by automated patch clamp method; assay type: toxicity, cell-based
Chain of Voltage-gated inwardly rectifying potassium channel KCNH2 (Q12809 whole entry): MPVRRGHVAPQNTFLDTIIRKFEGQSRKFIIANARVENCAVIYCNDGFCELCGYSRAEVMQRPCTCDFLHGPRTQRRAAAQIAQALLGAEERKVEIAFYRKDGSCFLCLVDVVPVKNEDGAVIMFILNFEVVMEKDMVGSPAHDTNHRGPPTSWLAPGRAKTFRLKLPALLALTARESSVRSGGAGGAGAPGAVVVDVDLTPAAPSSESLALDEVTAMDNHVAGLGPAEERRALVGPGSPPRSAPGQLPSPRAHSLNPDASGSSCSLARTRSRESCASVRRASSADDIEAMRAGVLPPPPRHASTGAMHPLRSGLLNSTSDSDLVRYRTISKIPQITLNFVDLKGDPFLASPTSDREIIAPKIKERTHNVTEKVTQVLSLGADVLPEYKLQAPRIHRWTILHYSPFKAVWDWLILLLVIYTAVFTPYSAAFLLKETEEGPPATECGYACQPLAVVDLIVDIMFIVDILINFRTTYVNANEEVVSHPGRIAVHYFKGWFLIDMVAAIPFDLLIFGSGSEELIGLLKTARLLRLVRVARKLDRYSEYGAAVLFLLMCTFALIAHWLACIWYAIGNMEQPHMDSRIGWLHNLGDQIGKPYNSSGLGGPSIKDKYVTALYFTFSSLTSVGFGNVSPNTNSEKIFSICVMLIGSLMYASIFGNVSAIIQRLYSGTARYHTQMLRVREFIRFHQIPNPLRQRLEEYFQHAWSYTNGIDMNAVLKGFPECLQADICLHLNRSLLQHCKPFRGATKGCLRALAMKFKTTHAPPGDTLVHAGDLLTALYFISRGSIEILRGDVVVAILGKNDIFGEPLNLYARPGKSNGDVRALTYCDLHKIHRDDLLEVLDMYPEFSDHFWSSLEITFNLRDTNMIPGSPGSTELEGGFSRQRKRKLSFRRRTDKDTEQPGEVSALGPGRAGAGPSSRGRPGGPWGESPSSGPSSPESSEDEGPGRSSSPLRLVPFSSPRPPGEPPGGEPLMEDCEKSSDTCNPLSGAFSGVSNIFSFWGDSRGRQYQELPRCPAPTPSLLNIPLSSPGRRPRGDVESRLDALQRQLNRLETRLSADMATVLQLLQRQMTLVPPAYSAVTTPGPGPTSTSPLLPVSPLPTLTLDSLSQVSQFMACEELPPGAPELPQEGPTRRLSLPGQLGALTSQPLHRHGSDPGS

[6] = Metabolic stability in human liver microsomes assessed as intrinsic clearance at 2.5 uM; assay type: ADME, Microsome; details: read-out: CLH
[7] = Metabolic stability in Wistar rat liver microsomes assessed as intrinsic clearance at 2.5 uM; assay type: ADME, Microsome; details: read-out: CLH
[8] = Passive permeability in human Caco-2 cells assessed as permeability damage ratio at 10 uM by HPLC-UV analysis; assay type: ADME, cell-based; details: caco-2, 10 µM
[9] = Apparent permeability in human Caco-2 cells at 10 uM by HPLC-UV analysis; assay type: ADME, cell-based
[10] = Ratio of drug level in brain to plasma in Wistar rat at 3 mg/kg, po measured at 1.5 hr post dose; assay type: ADME, organism-based; details: brain and plasma, read-out: BPR
[11] = Clearance in Wistar rat plasma at 1 mg/kg, iv by HPLC-MS/MS analysis; assay type: ADME, organism-based
[12] = Volume of distribution in Wistar rat plasma at 1 mg/kg, iv by HPLC-MS/MS analysis; assay type: ADME, organism-based
[13] = Half life in Wistar rat total plasma at 1 mg/kg, iv by HPLC-MS/MS analysis; assay type: ADME, organism-based
[14] = Half life in Wistar rat total plasma at 1 mg/kg, po by HPLC-MS/MS analysis; assay type: ADME, organism-based
[15] = Tmax in Wistar rat total plasma at 1 mg/kg, po by HPLC-MS/MS analysis; assay type: ADME, organism-based
[16] = AUC (0 to infinity) in Wistar rat total plasma at 1 mg/kg, iv by HPLC-MS/MS analysis; assay type: ADME, organism-based; set-up: time infinity, dose 1 mg/kg, route iv
[17] = AUC (0 to infinity) in Wistar rat total plasma at 1 mg/kg, po by HPLC-MS/MS analysis; assay type: ADME, organism-based; set-up: time infinity, dose 1 mg/kg, route po
[18] = Cmax in Wistar rat total plasma at 1 mg/kg, po by HPLC-MS/MS analysis; assay type: ADME, organism-based; set-up: dose 1 mg/kg, route po
[19] = Bioavailability in Wistar rat total plasma at 1 mg/kg, iv by HPLC-MS/MS analysis; assay type: ADME, organism-based
[20] = Ratio of drug level in brain to plasma in Wistar rat at 1 mg/kg, iv by HPLC-MS/MS analysis; assay type: ADME, organism-based; details: brain and plasma, read-out: BPR
[21] = filed as negative allosteric modulator

| Ki [1] [nM] | Activity [2] [%] | Activity [3, 21] [%] | Activity [4] [%] | microsomal CLint at 2.5 µM [6] [µL/min/mg] | microsomal CLint at 2.5 µM [7] [µL/min/mg] | Papp at 10 µM [9] [×10⁻⁶ cm/s] | SMILES | IC50 [5] [nM] | Ratio [8] | other results |
| --- | --- | --- | --- | --- | --- | --- | --- | --- | --- | --- |
| 7.7 | -33 | -46 | -12 | 7 | 89 | 49.3 | Cc1onc(-c2ccc(F)cc2)c1COc1ccc2c(n1)CCN(CCS(C)(=O)=O)C2=O | 1100 | 1.1 |  |
| 7 | -24 | -40 | -14 | 24 | 158 |  | Cc1onc(-c2ccc(F)cc2)c1COc1ccc2c(n1)CCN(C(=O)C1CCOC1)C2 (stereo not drawn) | 3600 |  |  |
| 35 | -32 | -47 |  | 1 | 4 | 7.54 | Cc1nnn(-c2ccc(F)cc2)c1COc1ccc2c(n1)CCN(C(=O)C1CC(=O)N(C)C1)C2 (stereo not drawn) | 30000 | 8.9 |  |
| 9.2 | -20 | -37 | -9 | 10 | 93 |  | Cc1onc(-c2ccc(F)cc2)c1COc1ccc2c(n1)CCN(C(=O)C1CCOCC1)C2 | 5700 |  |  |
| 28 | -25 | -36 | 0 | 18 | 26 | 52.8 | CC(=O)N1CCc2nc(OCc3c(C)nnn3-c3ccc(F)cc3)ccc2C1 | > 30000 | 0.74 | Kp at 1.5 h [10]: 0.45; clearance [11]: 77.9 mL/min/kg; Vd [12]: 1.36 L/kg; half-life [13]: 12 min; half-life [14]: 42.6 min; Tmax [15]: 30 min; AUC(0-inf) [16]: 218 ng·h/mL; AUC(0-inf) [17]: 20.4 ng·h/mL; Cmax [18]: 21.4 ng/mL; bioavailability [19]: 9.4%; Kp [20]: 0.46 |
| 4.1 | -25 | -42 | 2 | 14 | 227 |  | Cc1onc(-c2ccc(F)cc2)c1COc1ccc2c(n1)CCNC2=O | 10000 |  |  |
| 42 | -34 | -39 | -7 | 13 | 29 | 44.6 | Cc1nnn(-c2ccc(F)cc2)c1COc1ccc2c(n1)CCN(C(=O)C1CCOC1)C2 (stereo not drawn) | 30000 | 1.1 | Kp at 1.5 h [10]: 0.21 |
| 9 | -29 | -35 | -10 |  |  |  | Cc1onc(-c2ccc(F)cc2)c1COc1ccc2c(n1)CCN(Cc1ccno1)C2=O | 2500 |  |  |
| 39 | -30 | -43 | -8 | 15 | 46 | 47.1 | Cc1nnn(-c2ccc(F)cc2)c1COc1ccc2c(n1)CCN(C(=O)C1CCCO1)C2 (stereo not drawn) | > 30000 | 0.92 | Kp at 1.5 h [10]: 0.31 |
| 28 | -32 | -34 |  | 10 | 39 | 18.7 | Cc1nnn(-c2ccc(F)cc2)c1COc1ccc2c(n1)CCN(C(=O)NC1CCOC1)C2 (stereo not drawn) | 21000 | 4.7 |  |
| 38 | -31 | -35 | -3 | 4 | 11 | 0.33 | Cc1nnn(-c2ccc(F)cc2)c1COc1ccc2c(n1)CCN(C(=O)NC1CC(=O)N(C)C1)C2 (stereo not drawn) | > 30000 | 134 |  |
| 13 | -9 | -25 | -2 | 16 | 214 |  | Cc1onc(-c2ccc(F)cc2)c1COc1ccc2c(n1)CCN(C(C)C)C2=O | 4400 |  |  |
| 3.6 | -22 | -38 | -10 | 10 | 36 |  | Cc1onc(-c2ccc(F)cc2)c1COc1ccc2c(n1)CCN(C(=O)C1CCS(=O)(=O)CC1)C2 | 2900 |  |  |
| 23 | -29 | -28 | -6 |  |  |  | Cc1onc(-c2ccc(F)cc2)c1COc1ccc2c(n1)CCN(CC1CCCO1)C2=O (stereo not drawn) | 2900 |  |  |
| 3.2 | -19 | -30 | -7 | 9 | 25 | 54.5 | CC(=O)N1Cc2ccc(OCc3c(C)nnn3-c3ccc(F)cc3)nc2C1 | 30000 | 0.9 | Kp at 1.5 h [10]: 0.38; clearance [11]: 55.5 mL/min/kg; Vd [12]: 1.09 L/kg; half-life [13]: 13.8 min; half-life [14]: 51.6 min; Tmax [15]: 30 min; AUC(0-inf) [16]: 301 ng·h/mL; AUC(0-inf) [17]: 43.7 ng·h/mL; Cmax [18]: 47.6 ng/mL; bioavailability [19]: 14.5%; Kp [20]: 0.38 |
| 8 | -25 | -39 | -10 | 29 | 139 |  | Cc1onc(-c2ccc(F)cc2)c1COc1ccc2c(n1)CCN(C1CCOC1)C2=O (stereo not drawn) | 3200 |  |  |
| 55 | -41 |  | -16 | 1 | 9 | 22 | Cc1nnn(-c2ccc(F)cc2)c1COc1ccc2c(n1)CCN(CCS(C)(=O)=O)C2=O | 30000 | 3.2 | Activity [3]: -51%; Kp at 1.5 h [10]: 0.02 |
| 2.8 | -21 | -31 | -8 | 28 | 404 |  | Cc1onc(-c2ccc(F)cc2)c1COc1ccc2c(n1)CCN(C)C2=O | 3800 |  |  |

Source: ChEMBL document CHEMBL5154916, “Multiparameter Optimization of Naphthyridine Derivatives as Selective α5-GABAA Receptor Negative Allosteric Modulators” (J Med Chem, 2022)
